Laboratory results from ChEMBL document CHEMBL1201862, “PubChem BioAssay data set” (2004).
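Compound exposure: 48 hours, 5 concentrations, 96-well plates. GI50 marks 50% less growth.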 The source made the active and inactive calls. Rule as the data show it: active = GI50 up to about 1.1 µM and inactive = higher.

Assays:
Assay in all cases: NCI anticancer screen, dose series, 48 h
NCI-H23 = test system: NCI-H23
OVCAR-3 = test system: OVCAR-3
K562 = test system: K562
ACHN = test system: ACHN
SW-620 = test system: SW-620
SN12C = test system: SN12C
NCI-H522 = test system: NCI-H522
SK-OV-3 = test system: SK-OV-3
HL-60 = test system: HL-60
LXFL 529 = test system: LXFL 529
HOP-92 = test system: HOP-92
786-0 = test system: 786-0
OVCAR-8 = test system: OVCAR-8
HOP-62 = test system: HOP-62
OVCAR-4 = test system: OVCAR-4
KM12 = test system: KM12
MOLT-4 = test system: MOLT-4
HCT-15 = test system: HCT-15

CCOC(=O)C1N(S(=O)(=O)c2ccc(C)cc2)CCC12C(c1ccc(OC)c(OC)c1)=Nc1ccccc12 (centres undefined)
GI50 (NCI-H23): > 100 µM (inactive)
GI50 (OVCAR-3): > 100 µM (inactive)
GI50 (K562): > 100 µM (inactive)
GI50 (ACHN): > 100 µM (inactive)
GI50 (SW-620): > 100 µM (inactive)
GI50 (SN12C): > 100 µM (inactive)
GI50 (NCI-H522): > 100 µM (inactive)
GI50 (SK-OV-3): > 100 µM (inactive)
GI50 (HL-60): > 100 µM (inactive)
GI50 (LXFL 529): > 100 µM (inactive)
GI50 (HOP-92): 28.5 µM (inactive)
GI50 (786-0): > 100 µM (inactive)
GI50 (OVCAR-8): > 100 µM (inactive)
GI50 (HOP-62): > 100 µM (inactive)
GI50 (OVCAR-4): > 100 µM (inactive)
GI50 (KM12): > 100 µM (inactive)

N#Cc1c2nc3ccccc3nc2n2ccc3ccccc3c12
GI50 (NCI-H23): 68.4 µM (inactive)
GI50 (OVCAR-3): > 100 µM (inactive)
GI50 (K562): > 100 µM (inactive)
GI50 (ACHN): > 100 µM (inactive)
GI50 (SN12C): > 100 µM (inactive)
GI50 (MOLT-4): > 100 µM (inactive)
GI50 (NCI-H522): > 100 µM (inactive)
GI50 (HCT-15): > 100 µM
GI50 (SK-OV-3): > 100 µM (inactive)
GI50 (HL-60): > 100 µM (inactive)
GI50 (LXFL 529): > 100 µM (inactive)
GI50 (HOP-92): > 100 µM (inactive)
GI50 (786-0): > 100 µM (inactive)
GI50 (OVCAR-8): > 100 µM (inactive)
GI50 (OVCAR-4): > 100 µM (inactive)
GI50 (KM12): 32.4 µM (inactive)

COc1cc2ccc(CC#N)cc2cc1OC
GI50 (NCI-H23): > 100 µM (inactive)
GI50 (K562): > 100 µM (inactive)
GI50 (ACHN): > 100 µM (inactive)
GI50 (SW-620): > 100 µM (inactive)
GI50 (SN12C): > 100 µM (inactive)
GI50 (MOLT-4): > 100 µM (inactive)
GI50 (SK-OV-3): > 100 µM (inactive)
GI50 (HL-60): > 100 µM (inactive)
GI50 (LXFL 529): > 100 µM (inactive)
GI50 (HOP-92): 71.1 µM (inactive)
GI50 (786-0): > 100 µM (inactive)
GI50 (OVCAR-8): > 100 µM (inactive)
GI50 (HOP-62): > 100 µM (inactive)
GI50 (OVCAR-4): 93.5 µM (inactive)
GI50 (KM12): > 100 µM (inactive)

CCN(CC)CCN(C)CC(C)(C)C(=O)/C=C/c1ccccc1
GI50 (NCI-H23): 12.6 µM (inactive)
GI50 (OVCAR-3): 13.5 µM (inactive)
GI50 (K562): 0.0693 µM (active)
GI50 (ACHN): 12.6 µM (inactive)
GI50 (SW-620): 11.5 µM (inactive)
GI50 (SN12C): 10 µM (inactive)
GI50 (MOLT-4): 5.16 µM (inactive)
GI50 (NCI-H522): 9.77 µM (inactive)
GI50 (HCT-15): 12.5 µM
GI50 (SK-OV-3): 12.6 µM (inactive)
GI50 (HL-60): 6.22 µM (inactive)
GI50 (LXFL 529): 12.3 µM (inactive)
GI50 (HOP-92): 3.99 µM (inactive)
GI50 (786-0): 15.8 µM (inactive)
GI50 (OVCAR-8): 15.8 µM (inactive)
GI50 (HOP-62): 22.1 µM (inactive)
GI50 (OVCAR-4): 11.4 µM (inactive)
GI50 (KM12): 12.1 µM (inactive)

CC(=O)N/C(=C\c1cccc([N+](=O)[O-])c1)c1nc2ccc3c(c2[nH]1)C(=O)c1ccccc1C3=O
GI50 (NCI-H23): 39.8 µM (inactive)
GI50 (OVCAR-3): > 100 µM (inactive)
GI50 (K562): 23.9 µM (inactive)
GI50 (ACHN): 4.37 µM (inactive)
GI50 (SW-620): 31.9 µM (inactive)
GI50 (SN12C): 21 µM (inactive)
GI50 (MOLT-4): 8.04 µM (inactive)
GI50 (NCI-H522): 9.89 µM (inactive)
GI50 (HCT-15): 13.9 µM
GI50 (SK-OV-3): 13.6 µM (inactive)
GI50 (HL-60): 2.76 µM (inactive)
GI50 (LXFL 529): 29.3 µM (inactive)
GI50 (HOP-92): > 50.4 µM (inactive)
GI50 (786-0): 27.2 µM (inactive)
GI50 (OVCAR-8): 43.6 µM (inactive)
GI50 (HOP-62): 78 µM (inactive)
GI50 (OVCAR-4): > 65.9 µM (inactive)
GI50 (KM12): 7.57 µM (inactive)

COc1ccc(C2Oc3cc(OC)c(OC)cc3C2CCl)cc1OC (centres undefined)
GI50 (NCI-H23): > 10 µM (inactive)
GI50 (OVCAR-3): > 100 µM (inactive)
GI50 (K562): > 100 µM (inactive)
GI50 (ACHN): > 100 µM (inactive)
GI50 (SW-620): > 100 µM (inactive)
GI50 (SN12C): > 100 µM (inactive)
GI50 (MOLT-4): > 100 µM (inactive)
GI50 (NCI-H522): > 100 µM (inactive)
GI50 (HCT-15): > 100 µM
GI50 (HL-60): > 100 µM (inactive)
GI50 (LXFL 529): > 100 µM (inactive)
GI50 (HOP-92): 74.3 µM (inactive)
GI50 (786-0): 56.8 µM (inactive)
GI50 (OVCAR-8): > 100 µM (inactive)
GI50 (HOP-62): > 100 µM (inactive)
GI50 (OVCAR-4): 41.4 µM (inactive)
GI50 (KM12): > 100 µM (inactive)

CCOC(=O)C(=O)C(C#N)c1ccc(Cl)cc1 (centres undefined)
GI50 (NCI-H23): > 100 µM (inactive)
GI50 (OVCAR-3): > 100 µM (inactive)
GI50 (K562): > 100 µM (inactive)
GI50 (ACHN): > 100 µM (inactive)
GI50 (SW-620): > 100 µM (inactive)
GI50 (SN12C): > 100 µM (inactive)
GI50 (MOLT-4): > 100 µM (inactive)
GI50 (NCI-H522): > 100 µM (inactive)
GI50 (HCT-15): > 100 µM
GI50 (SK-OV-3): > 100 µM (inactive)
GI50 (HL-60): > 100 µM (inactive)
GI50 (LXFL 529): > 100 µM (inactive)
GI50 (HOP-92): > 100 µM (inactive)
GI50 (786-0): > 100 µM (inactive)
GI50 (OVCAR-8): > 100 µM (inactive)
GI50 (HOP-62): > 100 µM (inactive)
GI50 (OVCAR-4): > 100 µM (inactive)

CCOC(=O)NC(=O)c1c[nH]c(=O)[nH]c1=O
GI50 (NCI-H23): > 100 µM (inactive)
GI50 (OVCAR-3): > 100 µM (inactive)
GI50 (K562): > 100 µM (inactive)
GI50 (ACHN): > 100 µM (inactive)
GI50 (SW-620): > 100 µM (inactive)
GI50 (SN12C): > 100 µM (inactive)
GI50 (MOLT-4): > 100 µM (inactive)
GI50 (HCT-15): > 100 µM
GI50 (SK-OV-3): > 100 µM (inactive)
GI50 (HL-60): > 100 µM (inactive)
GI50 (LXFL 529): > 100 µM (inactive)
GI50 (HOP-92): > 100 µM (inactive)
GI50 (786-0): > 100 µM (inactive)
GI50 (OVCAR-8): > 100 µM (inactive)
GI50 (HOP-62): > 100 µM (inactive)
GI50 (OVCAR-4): > 100 µM (inactive)
GI50 (KM12): > 100 µM (inactive)
